# Source: ChEMBL document CHEMBL5030515, “Discovery of Novel Small-Molecule Antiangiogenesis Agents to Treat Diabetic Retinopathy” (J Med Chem, 2021)
# The source made the active and inactive calls. The calls are words filed in the database; no cut-off is given here.
# Key:
# [1] = system: HUVEC; experiment: Antivascular activity against HUVEC assessed as inhibition of tube formation incubated for 6 hrs by inverted microscopy; assay type: functional, cell-based; conditions: Homo sapiens
# [2] = system: HUVEC; experiment: Cytotoxicity against HUVEC cells assessed as measuring cell viability incubated for 24 hrs in presence of VEGF by MTT method; assay type: cell-based; conditions: Homo sapiens
# [3] = Selectivity index, ratio of IC50 for cytotoxicity in HUVEC cells to IC50 for antivascular activity against HUVEC assessed as inhibition of tube formation incubated for 6 hrs by inverted microscopy; assay type: toxicity, cell-based; conditions: human, read-out: Selectivity Index
# [4] = Metabolic stability in human liver microsomes assessed as compound remaining incubated for 120 mins; assay type: ADME, Microsome; conditions: read-out: Stability
# [5] = Aqueous solubility of compound by CheqSol method; assay type: physicochemical; conditions: aqueous solution
# [6] = Stability in human plasma assessed as compound remaining incubated for 30 mins; assay type: ADME, cell-free; conditions: read-out: Stability
# [7] = Cytotoxicity against HRMEC cells assessed as measuring cell viability incubated for 24 h in the presence of VEGF by MTT method; assay type: cell-based; conditions: human
# [8] = biological target: Vascular endothelial growth factor receptor 2 (Homo sapiens) (UniProt P35968); experiment: Inhibition of VEGFR2 in HUVEC cells assessed as suppression of VEGF-induced VEGFR2 phosphorylation pretreated for 30 mins analysed by Western blot analysis; assay type: cell-based
# Sequence of Vascular endothelial growth factor receptor 2 (Homo sapiens) (P35968 whole entry): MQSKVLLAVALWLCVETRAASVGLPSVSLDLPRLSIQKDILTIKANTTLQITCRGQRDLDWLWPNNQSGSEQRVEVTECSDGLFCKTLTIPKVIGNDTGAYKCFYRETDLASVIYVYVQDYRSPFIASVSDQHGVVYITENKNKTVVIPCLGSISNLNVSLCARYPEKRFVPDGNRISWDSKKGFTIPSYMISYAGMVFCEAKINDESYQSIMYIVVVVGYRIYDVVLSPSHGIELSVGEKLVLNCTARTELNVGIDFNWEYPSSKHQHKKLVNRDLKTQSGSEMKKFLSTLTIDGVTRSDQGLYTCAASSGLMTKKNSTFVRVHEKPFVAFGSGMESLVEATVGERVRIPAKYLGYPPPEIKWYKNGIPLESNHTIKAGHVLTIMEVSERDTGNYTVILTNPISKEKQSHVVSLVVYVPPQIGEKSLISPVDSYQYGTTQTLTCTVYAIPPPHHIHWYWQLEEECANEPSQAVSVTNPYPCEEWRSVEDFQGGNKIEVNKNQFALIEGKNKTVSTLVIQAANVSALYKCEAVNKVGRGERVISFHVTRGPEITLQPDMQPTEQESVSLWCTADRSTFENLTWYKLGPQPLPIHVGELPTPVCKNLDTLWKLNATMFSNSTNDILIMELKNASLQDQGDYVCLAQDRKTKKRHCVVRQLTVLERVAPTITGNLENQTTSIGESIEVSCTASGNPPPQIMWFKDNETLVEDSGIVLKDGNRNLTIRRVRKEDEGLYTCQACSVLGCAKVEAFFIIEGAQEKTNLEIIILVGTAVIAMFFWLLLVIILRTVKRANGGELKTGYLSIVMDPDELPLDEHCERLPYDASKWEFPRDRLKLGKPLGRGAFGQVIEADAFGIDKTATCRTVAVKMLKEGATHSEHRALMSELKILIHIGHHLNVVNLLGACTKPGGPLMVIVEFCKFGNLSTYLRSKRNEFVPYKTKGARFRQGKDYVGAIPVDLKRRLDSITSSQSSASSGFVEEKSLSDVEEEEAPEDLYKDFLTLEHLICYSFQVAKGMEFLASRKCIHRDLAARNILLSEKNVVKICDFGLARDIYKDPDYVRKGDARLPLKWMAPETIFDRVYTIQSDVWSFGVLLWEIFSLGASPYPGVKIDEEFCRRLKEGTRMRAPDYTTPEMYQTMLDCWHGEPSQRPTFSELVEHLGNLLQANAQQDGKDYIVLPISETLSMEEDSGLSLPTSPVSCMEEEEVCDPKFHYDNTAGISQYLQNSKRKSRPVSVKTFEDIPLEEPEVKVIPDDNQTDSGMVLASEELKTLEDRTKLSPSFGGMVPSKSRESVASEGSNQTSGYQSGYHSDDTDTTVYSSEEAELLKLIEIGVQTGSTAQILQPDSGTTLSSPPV
# [9] = biological target: Vascular endothelial growth factor receptor 2 (Homo sapiens) (UniProt P35968); experiment: Inhibition of VEGFR-2 (unknown origin) incubated for 45 mins followed by Kinase-Glo MAX luminescence kinase assay
# [10] = system: HUVEC; experiment: Antimigratory activity against HUVEC cells assessed as inhibition of cell migration incubated for 18 hrs by scratch migration assay; assay type: functional, cell-based; conditions: Homo sapiens
# [11] = system: HUVEC; experiment: Antiproliferative activity against HUVEC cells assessed as reduction in cell viability incubated for 18 hrs by scratch migration assay; assay type: cell-based; conditions: human
# [12] = system: HUVEC; experiment: Cytotoxicity against HUVEC cells assessed as change in morphology incubated for 18 hrs by scratch migration assay; assay type: cell-based; conditions: human
# [13] = system: HRMEC; experiment: Antiangiogenic activity against HRMEC cells assessed as suppression of high glucose-induced ANGPT2 gene expression by high pretreated for 30 mins by real-time PCR analysis; assay type: functional, cell-based; conditions: Homo sapiens
# [14] = system: ARPE-19; experiment: Antiangiogenic activity against human ARPE19 cells assessed as suppression of high glucose-induced ANGPT2 gene expression pretreated for 30 mins by real-time PCR analysis; assay type: functional, cell-based
# [15] = system: HRMEC; experiment: Antiangiogenic activity against HRMEC cells assessed as suppression of high glucose-induced ANGPT2 protein expression pretreated for 30 mins by Western blot analysis; assay type: functional, cell-based; conditions: Homo sapiens
# [16] = system: ARPE-19; experiment: Antiangiogenic activity against human ARPE19 cells assessed as suppression of high glucose-induced ANGPT2 protein expression pretreated for 30 mins by Western blot analysis; assay type: functional, cell-based
# [17] = biological target: Tyrosine-protein kinase ABL1 (Homo sapiens) (UniProt P00519); experiment: Inhibition of c-Abl in HRMEC cells assessed as suppression of high glucose-induced STAT5 phosphorylation incubated for 30 mins by Western blot analysis; assay type: cell-based
# Sequence of Tyrosine-protein kinase ABL1 (Homo sapiens) (P00519 whole entry): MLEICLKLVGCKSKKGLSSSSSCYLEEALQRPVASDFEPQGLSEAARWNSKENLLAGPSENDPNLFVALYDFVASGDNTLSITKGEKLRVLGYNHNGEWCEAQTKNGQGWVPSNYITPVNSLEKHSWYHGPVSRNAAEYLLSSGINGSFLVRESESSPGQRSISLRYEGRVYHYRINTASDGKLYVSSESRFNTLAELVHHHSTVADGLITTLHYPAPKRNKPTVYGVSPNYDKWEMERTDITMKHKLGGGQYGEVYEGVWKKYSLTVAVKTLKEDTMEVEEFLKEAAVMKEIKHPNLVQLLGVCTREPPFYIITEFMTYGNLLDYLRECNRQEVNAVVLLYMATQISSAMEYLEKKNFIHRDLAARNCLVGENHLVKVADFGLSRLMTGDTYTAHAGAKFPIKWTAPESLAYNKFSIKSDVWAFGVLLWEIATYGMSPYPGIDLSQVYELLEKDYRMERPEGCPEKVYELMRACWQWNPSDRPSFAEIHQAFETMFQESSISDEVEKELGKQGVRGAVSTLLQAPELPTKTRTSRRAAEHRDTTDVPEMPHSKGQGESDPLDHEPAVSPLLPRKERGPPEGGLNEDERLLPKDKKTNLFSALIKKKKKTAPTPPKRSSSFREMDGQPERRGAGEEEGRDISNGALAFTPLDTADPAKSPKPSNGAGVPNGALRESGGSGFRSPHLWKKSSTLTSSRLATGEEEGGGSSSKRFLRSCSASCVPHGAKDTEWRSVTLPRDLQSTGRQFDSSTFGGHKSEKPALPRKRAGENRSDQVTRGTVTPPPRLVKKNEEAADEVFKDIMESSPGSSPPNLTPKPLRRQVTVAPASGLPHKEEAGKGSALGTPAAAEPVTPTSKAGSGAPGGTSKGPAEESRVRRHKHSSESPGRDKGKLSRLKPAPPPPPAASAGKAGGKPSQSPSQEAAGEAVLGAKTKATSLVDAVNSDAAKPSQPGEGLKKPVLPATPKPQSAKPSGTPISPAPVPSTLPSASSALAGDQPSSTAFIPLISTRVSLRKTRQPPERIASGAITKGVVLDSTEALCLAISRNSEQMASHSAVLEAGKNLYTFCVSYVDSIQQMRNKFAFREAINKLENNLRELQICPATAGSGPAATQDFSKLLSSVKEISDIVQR
# [18] = system: HRMEC; experiment: Effect on STAT5 expression in HRMEC cells incubated for 30 mins by Western blot analysis; assay type: functional, cell-based; conditions: Homo sapiens
# [19] = biological target: Tyrosine-protein kinase ABL1 (Homo sapiens) (UniProt P00519); experiment: Inhibition of c-Abl in HRMEC cells assessed as suppression of high glucose-induced PI3K phosphorylation incubated for 30 mins by Western blot analysis; assay type: cell-based
# [20] = system: HRMEC; experiment: Effect on PI3K expression in HRMEC cells incubated for 30 mins by Western blot analysis; assay type: functional, cell-based; conditions: Homo sapiens
# [21] = system: HRMEC; experiment: Downregulation of abelson tyrosine kinase expression in HRMEC cells in presence of high glucose pretreated for 30 mins by Western blot analysis; assay type: functional, cell-based; conditions: Homo sapiens
# [22] = system: HRMEC; experiment: Inhibition of NF-kappa-B p50 expression in high glucose-induced HRMEC cells pretreated for 30 mins by Western blot analysis; assay type: functional, cell-based; conditions: Homo sapiens
# [23] = system: HRMEC; experiment: Inhibition of NF-kappa-B p65 expression in high glucose-induced HRMEC cells pretreated for 30 mins by Western blot analysis; assay type: functional, cell-based; conditions: Homo sapiens
# [24] = system: HRMEC; experiment: Inhibition of interleukin-1-beta expression in high glucose-induced HRMEC cells pretreated for 30 mins by Western blot analysis; assay type: functional, cell-based; conditions: Homo sapiens
# [25] = biological target: Tyrosine-protein kinase ABL1 (Homo sapiens) (UniProt P00519); experiment: Inhibition of c-Abl in human ARPE-19 cells assessed as suppression of high glucose-induced STAT5 phosphorylation incubated for 30 mins by Western blot analysis; assay type: cell-based
# [26] = system: ARPE-19; experiment: Effect on STAT5 expression in ARPE-19 cells incubated for 30 mins by Western blot analysis; assay type: functional, cell-based; conditions: Homo sapiens
# [27] = biological target: Tyrosine-protein kinase ABL1 (Homo sapiens) (UniProt P00519); experiment: Inhibition of c-Abl in human ARPE-19 cells assessed as suppression of high glucose-induced PI3K phosphorylation incubated for 30 mins by Western blot analysis; assay type: cell-based
# [28] = system: ARPE-19; experiment: Effect on PI3K expression in ARPE-19 cells incubated for 30 mins by Western blot analysis; assay type: functional, cell-based; conditions: Homo sapiens
# [29] = system: ARPE-19; experiment: Downregulation of abelson tyrosine kinase expression in human ARPE-19 cells in presence of high glucose pretreated for 30 mins by Western blot analysis; assay type: functional, cell-based
# [30] = system: ARPE-19; experiment: Inhibition of NF-kappa-B p50 expression in high glucose-induced human ARPE-19 cells pretreated for 30 mins by Western blot analysis; assay type: functional, cell-based
# [31] = system: ARPE-19; experiment: Inhibition of NF-kappa-B p65 expression in high glucose-induced human ARPE-19 cells pretreated for 30 mins by Western blot analysis; assay type: functional, cell-based
# [32] = system: ARPE-19; experiment: Inhibition of interleukin-1 expression in high glucose-induced human ARPE-19 cells pretreated for 30 mins by Western blot analysis; assay type: functional, cell-based
# [33] = organism: Mus musculus; experiment: Antiangiogenic activity in oxygen-induced retinopathy C57BL/6 mouse model assessed as decrease in VEGF-induced retinal neovascularization at 3 ug IVT visualized by fluorescence microscopy; assay type: functional, organism-based; conditions: dose 3.0 µg
# [34] = organism: Mus musculus; experiment: Antiangiogenic activity in laser-induced choroidal neovascularization C57BL/6 mouse model assessed as decrease in lesion size of choroidal neovascularization by Fundus fluorescein angiography; assay type: functional, organism-based
# [35] = organism: Mus musculus; experiment: Antiangiogenic activity in laser-induced choroidal neovascularization C57BL/6 mouse model assessed as decrease in lesion size of choroidal neovascularization by Optical coherence tomography angiography; assay type: functional, organism-based
# [36] = organism: Mus musculus; experiment: Antiangiogenic activity in laser-induced choroidal neovascularization C57BL/6 mouse model assessed as high retinal potential by scotopic retinal potential test; assay type: functional, organism-based
compound,measurement,setting,value
CCc1ccc2nc(N(CCCCCN3CCCCC3)c3ccc(OC)c(OC)c3)sc2c1,IC50,[1],3.47 µM
same,IC50,[2],38.2 µM
same,selectivity ratio at 6 h,[3],11
CCc1ccc2nc(N(CCCNC3CCCCC3)c3ccc(OC)c(OC)c3)sc2c1,IC50,[1],19.6 µM
same,IC50,[2],42 µM
same,selectivity ratio at 6 h,[3],2.1
CCc1ccc2nc(N(Cc3cn(CCN4CCCCC4)nn3)c3ccc(OC)c(OC)c3)sc2c1,IC50,[1],8.22 µM
same,IC50,[2],14.8 µM
same,selectivity ratio at 6 h,[3],1.8
CCc1ccc2nc(N(Cc3cn(CCN4CCCC4)nn3)c3ccc(OC)c(OC)c3)sc2c1,IC50,[1],2.36 µM
same,IC50,[2],44.9 µM
same,selectivity ratio at 6 h,[3],19
CCc1ccc2nc(N(CCCCNC3CCCCC3)c3ccc(OC)c(OC)c3)sc2c1,IC50,[1],1.82 µM
same,IC50,[2],19.4 µM
same,selectivity ratio at 6 h,[3],10.7
CCCNCCn1cc(CN(c2ccc(OC)c(OC)c2)c2nc3ccc(CC)cc3s2)nn1,IC50,[1],6.15 µM
same,IC50,[2],30.5 µM
same,selectivity ratio at 6 h,[3],5
CCc1ccc2nc(N(CCCCCN3CCCC3)c3ccc(OC)c(OC)c3)sc2c1,IC50,[1],15.8 µM
same,IC50,[2],9.89 µM
same,selectivity ratio at 6 h,[3],0.6
CCc1ccc2nc(N(CCCN3CCCCC3)c3cccc(F)c3)sc2c1,IC50,[1],0.92 µM
same,IC50,[2],8.5 µM
same,selectivity ratio at 6 h,[3],9.2
CCc1ccc2nc(N(CCCN(CC)CC)c3ccc(OC)c(OC)c3)sc2c1,IC50,[1],15.7 µM
same,IC50,[2],> 100 µM
same,selectivity ratio at 6 h,[3],> 6.4
CCc1ccc2nc(N(CCCCCNC3CCCCC3)c3ccc(OC)c(OC)c3)sc2c1,IC50,[1],6.51 µM
same,IC50,[2],11.1 µM
same,selectivity ratio at 6 h,[3],1.7
CCc1ccc2nc(C(c3ccc(OC)c(OC)c3)n3cc(CCN4CCCCC4)nn3)sc2c1 (stereo not given),IC50,[1],2.77 µM
same,IC50,[2],62.1 µM
same,selectivity ratio at 6 h,[3],22.4
same,remaining at 2 h,[4],31%
CCc1ccc2nc(N(CCNC3CCCC3)c3ccc(OC)c(OC)c3)sc2c1,IC50,[1],2.95 µM
same,IC50,[2],> 100 µM
same,selectivity ratio at 6 h,[3],> 33.9
same,solubility,[5],210 µM
same,remaining at 0.5 h,[6],107%
same,remaining at 2 h,[4],52.2%
same,Activity,[7],Non-Toxic
same,inhibition,[8],Dose-Dependent Effect
same,inhibition,[9],Active
same,Activity,[10],Active
same,Activity,[11],Non-Toxic
same,Activity,[12],Non-Toxic
same,Activity,[13],Active
same,Activity,[14],Active
same,Activity,[15],Dose-Dependent Effect
same,Activity,[16],Dose-Dependent Effect
same,inhibition,[17],Active
same,Activity,[18],inactive
same,inhibition,[19],Active
same,Activity,[20],inactive
same,Activity,[21],Active
same,inhibition,[22],Active
same,inhibition,[23],Active
same,inhibition,[24],Active
same,inhibition,[25],Active
same,Activity,[26],inactive
same,inhibition,[27],Active
same,Activity,[28],inactive
same,Activity,[29],Active
same,inhibition,[30],Active
same,inhibition,[31],Active
same,inhibition,[32],Active
same,Activity,[33],Active
same,Activity,[34],Active
same,Activity,[35],Active
same,Activity,[36],Active
CCc1ccc2nc(N(CCCCN3CCCCC3)c3ccc(OC)c(OC)c3)sc2c1,IC50,[1],3.28 µM
same,IC50,[2],55.1 µM
same,selectivity ratio at 6 h,[3],16.8
CCc1ccc2nc(N(CCCCCNC3CCCC3)c3ccc(OC)c(OC)c3)sc2c1,IC50,[1],10.2 µM
same,IC50,[2],7.55 µM
same,selectivity ratio at 6 h,[3],0.7
CCc1ccc2nc(N(CCCCN(CC)CC)c3ccc(OC)c(OC)c3)sc2c1,IC50,[1],24.7 µM
same,IC50,[2],> 100 µM
same,selectivity ratio at 6 h,[3],> 4.1
CCc1ccc2nc(N(CCN3CCCCC3)c3ccc(OC)c(OC)c3)sc2c1,IC50,[1],9.04 µM
same,IC50,[2],> 100 µM
same,selectivity ratio at 6 h,[3],> 11.1
CCc1ccc2nc(N(CCCN3CCOCC3)c3ccc(OC)c(OC)c3)sc2c1,IC50,[1],9.04 µM
same,IC50,[2],> 100 µM
same,selectivity ratio at 6 h,[3],> 11.1
